In brackets after ≈: the same amount, converted by molar mass.
The molecules below were run on K562 (assay: Cytotoxicity against human K562 cells).
Type: functional, cell-based

| SMILES | IC50 [µg/mL] |
| --- | --- |
| C=C1C(=O)[C@]23C[C@H]1C[C@H](OC(C)=O)[C@H]2[C@]1(C)[C@@H](OC(C)=O)C[C@H](O)C(C)(C)[C@H]1C[C@@H]3OC(C)=O [ADENANTHIN C] | 3.3 (≈ 6.92 µM) |
| C=C1C(=O)[C@]23C[C@H]1C[C@H](O)[C@H]2[C@@]1(C)[C@H](C[C@@H]3OC(C)=O)C(C)(C)[C@@H](OC(C)=O)C[C@@H]1O [ADENANTHIN F] | 3.6 (≈ 8.28 µM) |
| C=C1C(=O)[C@]23C[C@H]1C[C@H](OC(C)=O)[C@H]2[C@]1(C)[C@@H](OC(C)=O)C[C@H](O)C(C)(C)[C@H]1[C@@H](O)[C@@H]3OC(C)=O [WEISIENSIN A] | 3.3 (≈ 6.7 µM) |

From ChEMBL document CHEMBL1150610, “Diterpenoids from Isodon adenantha” (J Nat Prod, 2002)
